Reference: US12440492B2, “Pharmaceutical compositions comprising AKT protein kinase inhibitors” (Genentech, Inc., priority 2016, dated 2025)
Structures can show the parent of a compound that is named as a salt.

Legend:
Format in all cases: physicochemical
[1] = Mechanical deformation behaviour (brittleness); conditions: more brittle than lactose
From the text: Mechanical compression during tableting of conventional pharmaceutical compositions comprising ipatasertib leads to exhausted compressibility, followed by elastic recovery of the tablet upon decompression. Therefore conventional pharmaceutical compositions comprising ipatasertib monohydrochloride are not suitable for direct compression due to lamination problems (crack formation during decompression) which are detectable as small cracks and fractures of the tablet core (e.g. using X-ray microtomography). Industrially required high-speed tableting processes may not be achievable.

Glass transition = conditions: monohydrochloride
[2] = Particle size distribution (d10, d50, d90) by laser diffraction
From the text: FIG. 6 illustrates particle size distribution of the material of Example 6C (Batch HQ00003) spray dried with two-feed nozzle as obtained by laser diffraction A bimodal particle size distribution is obvious. FIG. 9 illustrates particle size distribution of spray dried material with rotary wheel nozzle, i.e. of the material of batch BS1506SA03 of Example 13 (Table 20) obtained using a Malvern Mastersizer 2000 equipped with Hydro 2000S wet sample dispersion unit (Malvern Instruments Ltd, Malvern/UK). A monomodal particle size distribution is obvious. The terms “d50 value” (sometimes also referred to as “d(0.5)-value”) and “mass-median diameter” (or MMD) can be used interchangeably and denote the average particle size by mass, i.e. the average equivalent diameter of a particle, which is defined as the diameter where 50% (w) of the particles of the ensemble have a larger equivalent spherical diameter, and the other 50% (w) have a smaller equivalent spherical diameter. In analogy, the term “d10-value” denotes the particle diameter wherein 10% (w) of the particles of the ensemble have a smaller equivalent spherical diameter. In analogy, the term “d90-value” denotes the particle diameter wherein 90% (w) of the particles of the ensemble have a smaller equivalent spherical diameter.

[3] = Solid state by X-ray powder diffraction; conditions: * indicates absence of crystalline API; for Solid state / Polymorphy (X-Ray, XRPD): monohydrochloride
From the text: Bragg's law describes the diffraction of crystalline material with the equation “2d·sin(theta)=n·lambda”, wherein “d” denotes perpendicular distance (in Angstroms) between pairs of adjacent planes in a crystal (“d-spacing”), “theta” denotes the Bragg angle, “lambda” denotes the wavelength and “n” is an integer. When Bragg's law is fulfilled, the reflected beams are in phase and interfere constructively so that Bragg diffraction peaks are observed in the X-ray diffraction pattern. At angles of incidence other than the Bragg angle, reflected beams are out of phase and destructive interference or cancellation occurs. […] The XRPD pattern of an amorphous material is further characterized by one or more amorphous halos.
The term “XRPD” denotes the analytical method of X-Ray Powder Diffraction. The repeatability of the angular values is in the range of 2Theta±0.2°, more particularly in the range of 2Theta±0.1°. The term “approximately” given in combination with an angular value denotes the variance which is in the range of 2Theta±0.2°, particularly in the range of 2Theta±0.1°. The relative XRPD peak intensity is dependent upon many factors such as structure factor, temperature factor, crystallinity, polarization factor, multiplicity, and Lorentz factor. Relative intensities may vary considerably from one measurement to another due to preferred orientation effects. According to USP 941 (US Pharmacopoeia, 37th Edition, General Chapter 941), relative intensities between two samples of the same material may vary considerably due to “preferred orientation” effects. Anisotropic materials adopting preferred orientation will lead to anisotropic distribution of properties such as modulus, strength, ductility, toughness, electrical conductivity, thermal expansion, etc., as described e.g. in Kocks U. F. et al. (Texture and Anisotropy: Preferred Orientations in Polycrystals and Their Effect on Materials Properties, Cambridge University Press, 2000). In XRPD but also Raman spectroscopy, preferred orientations cause a change in the intensity distribution. Preferred orientation effects are particularly pronounced with crystalline APIs of relatively large particle size.

[4] = Bulk density, tapped density and Carr index; conditions: monohydrochloride
[5] = Shear cell testing with Ring Shear Tester RST-XS; conditions: Pre-shear stress 1000 PA, 30 mL shear cell; monohydrochloride
From the text: Similar to the classification used by Jenike (Dietmar Schulze, Pulver und Schüttgüter, 2009 Springer Verlag Berlin/DE), one can define flow behaviour based on the flow function constant (ffc) as follows:
The larger the flow function constant ffc, i.e., the smaller the ratio of the unconfined yield strength (σc) to the consolidation stress (σ1), the better a bulk solid's flow.

[6] = Solubility of ipatasertib
From the text: (§1) Whereas poor solubility is often a limiting factor in the development of galenical formulations of other API's (active pharmaceutical ingredient), a high solubility can equally be problematic for the process performance. Due to this very high intrinsic hygroscopicity of the API, ipatasertib drug substance tends to auto-dissolve to a honey-like viscous liquid at increased humidity. Such high solubility and hygroscopicity may pose serious problems for processing as well as for stability and shelf-life of the final product. Therefore, conventional pharmaceutical compositions comprising ipatasertib and processes for the manufacture of pharmaceutical compositions comprising wetting (e.g. wet granulation) are difficult due to the high solubility and high hygroscopicity of the API.

[7] = Hygroscopicity of ipatasertib
From the text: as §1

[8] = spray dried amorphous ipatasertib monohydrochloride powder
[9] = spray-dried amorphous ipatasertib monohydrochloride, rotary wheel atomizer

SMILES | Glass Transition tg (Glass transition) [°C] | Particle size d10 [2, 8] [μm] | Particle size d50 [2, 8] [μm] | Particle size d90 [2, 8] [μm] | Solid state / Polymorphy (X-Ray, XRPD) [3] | Bulk density [4, 9] [gcm^−3] | Tapped density [4, 9] [gcm^−3] | Particle size d10 [2, 9] [μm] | Particle size d50 [2, 9] [μm] | Particle size d90 [2, 9] [μm] | Polymorphy (X-Ray) [3] | Consolidation stress (σ1) [5] [PA] | Flow Function Constant (ffc) [5] | other results
CC(C)NC[C@@H](C(=O)N1CCN(c2ncnc3c2[C@H](C)C[C@H]3O)CC1)c1ccc(Cl)cc1 [ipatasertib monohydrochloride, (S)-2-(4-chlorophenyl)-1-(4-((5R,7R)-7-hydroxy-5-methyl-6,7-dihydro-5H-cyclopenta[d]pyrimidin-4-yl)piperazin-1-yl)-3-(isopropylamino)propan-1-one as monohydrochloride salt] | – | – | – | – | – | – | – | – | – | – | – | – | – | brittle deformation characteristics relative to lactose [1]: 3 ×
CC(C)NC[C@@H](C(=O)N1CCN(c2ncnc3c2[C@H](C)C[C@H]3O)CC1)c1ccc(Cl)cc1 [Example 6C, ipatasertib monohydrochloride] | 131 | 0.7 | 4.3 | – | amorphous | – | – | – | – | – | – | – | – | particle size distribution shape ([2]; laser diffraction, monohydrochloride): bimodal
CC(C)NC[C@@H](C(=O)N1CCN(c2ncnc3c2[C@H](C)C[C@H]3O)CC1)c1ccc(Cl)cc1 [BS1506SA06, ipatasertib monohydrochloride] | – | – | – | – | – | 0.41 | 0.56 | 12 | 32 | 63 | amorphous* | 1683 | 3.2 | –
CC(C)NC[C@@H](C(=O)N1CCN(c2ncnc3c2[C@H](C)C[C@H]3O)CC1)c1ccc(Cl)cc1 [ipatasertib, (S)-2-(4-chlorophenyl)-1-(4-((5R,7R)-7-hydroxy-5-methyl-6,7-dihydro-5H-cyclopenta[d]pyrimidin-4-yl)piperazin-1-yl)-3-(isopropylamino)propan-1-one] | – | – | – | – | – | – | – | – | – | – | – | – | – | solubility ([6]; water): > 1 g/g; solubility ([6]; water/ethanol 1:1): > 2 g/g; hygroscopicity ([7]; at 50% RH): ~6%; hygroscopicity ([7]; at 95% RH): > 35%
CC(C)NC[C@@H](C(=O)N1CCN(c2ncnc3c2[C@H](C)C[C@H]3O)CC1)c1ccc(Cl)cc1 [BS1506SA04, ipatasertib monohydrochloride] | – | – | – | – | – | 0.40 | 0.56 | 11 | 30 | 62 | amorphous* | 1707 | 3.2 | –
CC(C)NC[C@@H](C(=O)N1CCN(c2ncnc3c2[C@H](C)C[C@H]3O)CC1)c1ccc(Cl)cc1 [BS1506SA08, ipatasertib monohydrochloride] | – | – | – | – | – | 0.43 | 0.56 | 13 | 34 | 68 | amorphous* | 1686 | 3.4 | –
CC(C)NC[C@@H](C(=O)N1CCN(c2ncnc3c2[C@H](C)C[C@H]3O)CC1)c1ccc(Cl)cc1 [Composition 140910419, ipatasertib monohydrochloride] | – | 11 | 33 | 67 | amorph.* | – | – | – | – | – | – | 1729 | 3.5 | Bulk density [4, 8]: 0.44 gcm^−3; Tapped density [4, 8]: 0.58 gcm^−3

More lines, main results first:

Glass Transition tg (Glass transition) [°C] | Particle size d10 [2, 8] [μm] | Particle size d50 [2, 8] [μm] | Particle size d90 [2, 8] [μm] | Solid state / Polymorphy (X-Ray, XRPD) [3] | Bulk density [4, 9] [gcm^−3] | Tapped density [4, 9] [gcm^−3] | Particle size d10 [2, 9] [μm] | Particle size d50 [2, 9] [μm] | Particle size d90 [2, 9] [μm] | Polymorphy (X-Ray) [3] | Consolidation stress (σ1) [5] [PA] | Flow Function Constant (ffc) [5] | SMILES | other results
132 | 0.7 | 5.2 | 10.8 | amorphous | – | – | – | – | – | – | – | – | CC(C)NC[C@@H](C(=O)N1CCN(c2ncnc3c2[C@H](C)C[C@H]3O)CC1)c1ccc(Cl)cc1 [6B′, ipatasertib monohydrochloride] | –
– | 11 | 29 | 56 | amorph.* | – | – | – | – | – | – | 1710 | 3.3 | CC(C)NC[C@@H](C(=O)N1CCN(c2ncnc3c2[C@H](C)C[C@H]3O)CC1)c1ccc(Cl)cc1 [Composition 140910415, ipatasertib monohydrochloride] | Bulk density [4, 8]: 0.42 gcm^−3; Tapped density [4, 8]: 0.57 gcm^−3
131 | 0.7 | 3.8 | 7.5 | amorphous | – | – | – | – | – | – | – | – | CC(C)NC[C@@H](C(=O)N1CCN(c2ncnc3c2[C@H](C)C[C@H]3O)CC1)c1ccc(Cl)cc1 [6A′, ipatasertib monohydrochloride] | –
